What all share (assay): DTP human tumour cell line panel, 48 h
In assay [1] the test system is OVCAR-8.
Assay [2] deals with MDA-MB-231.
In assay [3] the test system is SK-MEL-5.
Assay [4] deals with HCT-15.
The test system of assay [5] is SNB-19.
The subject of assay [6] is RPMI-8226.
Assay [7] relates to U-251.
Assay [8] relates to T47D.
Assay [9] concerns SN12C.
Assay [10] relates to MCF7.
For assay [11], the system named is LOX IMVI.
Assay [12] concerns HCT-116.
The test system of assay [13] is MDA-MB-435.
Assay [14] has as its system UACC-257.
Assay [15] deals with PC-3.
The test system of assay [16] is SF-268.
The subject of assay [17] is BT-549.
In assay [18] the test system is EKVX.
The subject of assay [19] is TK-10.
Assay [20] deals with SR.

SMILES strings stand for the structures.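 Compound exposure: 48 hours, 5 concentrations, 96-well plates. GI50: concentration for 50% inhibition of growth.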 Activity calls are given as the source filed them. Rule as the data show it: active = GI50 up to about 1.1 µM and inactive = higher.

Regarding `CC1(C)OC1COc1c2occc2cc2ccc(=O)oc12` (stereo not drawn), the GI50 (in general, the concentration at which growth is held to half of that of the control) in assay [1] was 60.5 µM (inactive); in [2] it was > 100 µM (inactive); in [3] it was 86.3 µM (inactive); in assay [4], greater than 100 µM; in assay [5] it was > 100 µM (inactive); in [6], 39.2 µM (inactive). Besides, the GI50 in assay [7] was > 100 µM (inactive); in assay [8], 79.1 µM (inactive); in assay [9] it was > 100 µM (inactive); in assay [10], > 100 µM (inactive); in assay [11], > 100 µM (inactive); in [12], > 100 µM (inactive). In addition, the GI50 was > 100 µM (inactive) in assay [13]; > 100 µM (inactive) in assay [14]; > 100 µM (inactive) in assay [15]; > 100 µM (inactive) in assay [16]; 38.8 µM (inactive) in assay [17]; 58.6 µM (inactive) in assay [18].
Consider `c1ccc2c(c1)[nH]c1nc3cc(-c4ccc5nc6c(nc5c4)[nH]c4ccccc46)ccc3nc12`, for which the GI50 was > 100 µM (inactive) in assay [1]; > 34.5 µM (inactive) in assay [2]; 54.1 µM (inactive) in [3]; > 100 µM (inactive) in assay [5]; 38 µM (inactive) in assay [6]; 69.3 µM (inactive) in assay [7]. Besides, the GI50 in assay [8] was > 100 µM (inactive); in [9], > 100 µM (inactive); in [10] it was 20.5 µM (inactive); in [11], > 39.9 µM (inactive); in assay [12], > 69.7 µM (inactive); in assay [13], > 100 µM (inactive). Besides, the GI50 is > 100 µM (inactive) in assay [14]; > 100 µM (inactive) in assay [15]; > 100 µM (inactive) in assay [16]; > 100 µM (inactive) in assay [17]; > 100 µM (inactive) in assay [19]; > 90.4 µM (inactive) in assay [18].
As to `COC(=O)NC1(NC(=O)OC)NC(=O)c2cc(OC)c(OC)c(OC)c2N1`, the GI50 in assay [1] was 64.4 µM (inactive); in assay [2], 36.2 µM (inactive); in assay [3], 11 µM (inactive); in assay [4] it was 8.49 µM; in assay [5] it was 44.9 µM (inactive); in assay [7], < 0.01 µM (active). The GI50 was 43.5 µM (inactive) in [8]; 17.3 µM (inactive) in assay [20]; 41.6 µM (inactive) in [9]; 30.3 µM (inactive) in assay [10]; 26.1 µM (inactive) in assay [12]; > 100 µM (inactive) in assay [14]. Besides, the GI50 in assay [15] is 12.4 µM (inactive); in [16], 28.1 µM (inactive); in assay [17], 22.4 µM (inactive); in [19], 38 µM (inactive); in [18] it was > 100 µM (inactive).
With `O=C1CCCc2ccc3c(c21)CC1(Cc2cc4c(cc2C1)CCCC4)C3`, the GI50 in assay [1] is 19.7 µM (inactive); in assay [2], 15.5 µM (inactive); in assay [3] it was 12.6 µM (inactive); in [4] it was 19.4 µM; in assay [5], 26.6 µM (inactive); in assay [6], 10.2 µM (inactive). In addition, the GI50 was 20.4 µM (inactive) in assay [7]; 5.38 µM (inactive) in assay [8]; 6.98 µM (inactive) in assay [20]; 19.1 µM (inactive) in [9]; 17.5 µM (inactive) in [10]; 14.6 µM (inactive) in assay [11]. Also, the GI50 in assay [12] was 16.1 µM (inactive); in assay [13], 19.6 µM (inactive); in assay [14], 18.5 µM (inactive); in assay [16], 29 µM (inactive); in assay [17] it was 25.1 µM (inactive); in assay [19] it was 23.1 µM (inactive). For the same molecule, in [18], the GI50 was 21.1 µM (inactive).
Regarding `CCC1=C(C)C(=O)N/C1=C\c1[nH]c(C)c([C@H](C)CCN)c1C`, the GI50 in [1] was 15.3 µM (inactive); in [2] it was 17.4 µM (inactive); in assay [3] it was 17.2 µM (inactive); in assay [4], 14.8 µM; in assay [6], 25.6 µM (inactive); in assay [7], 15.1 µM (inactive). The GI50 in assay [8] was 9.98 µM (inactive); in [20] it was 50.6 µM (inactive); in assay [9], 16 µM (inactive); in assay [10], 15.5 µM (inactive); in assay [11] it was 15.3 µM (inactive); in assay [12], 14.5 µM (inactive). Moreover, the GI50 in [13] was 15.3 µM (inactive); in [16] it was 16.2 µM (inactive); in assay [17], 16.3 µM (inactive); in [18], 14.4 µM (inactive).
On to `COC(=O)C12OC(C)(C(CC(=O)OC(C)(C)C)C1=O)C1C(=O)N(c3ccccc3)C(=O)C12` (stereo not drawn), for which the GI50 in assay [1] was > 100 µM (inactive); in [2], > 100 µM (inactive); in assay [3], > 100 µM (inactive); in [4], greater than 100 µM; in assay [5], > 100 µM (inactive); in assay [6], > 100 µM (inactive). Besides, the GI50 in assay [7], in [8], in assay [20], in [9], in assay [11] and in assay [12] was > 100 µM (inactive) in each case. In addition, the GI50 in assay [13], in [14], in assay [15], in assay [16], in assay [17] and in assay [19] was > 100 µM (inactive) each time.
For `CCOC(=O)c1c(N=C(S)Nc2ccc(Cl)cc2)sc2c1CCN(C)C2`, the GI50 is > 100 µM (inactive) in assay [1]; > 100 µM (inactive) in assay [2]; > 100 µM (inactive) in assay [3]; 97.9 µM in assay [4]; > 100 µM (inactive) in assay [5]; 33.9 µM (inactive) in assay [6]. Further, the GI50 in [8], in assay [9], in [10], in [12], in assay [14] and in assay [15] was > 100 µM (inactive) each time. For the same molecule, the GI50 in assay [16] is > 100 µM (inactive); in assay [17], 78.9 µM (inactive); in assay [19], > 100 µM (inactive); in assay [18], > 100 µM (inactive).
Consider `CC1CC(=O)NC2CC1C2(C)C` (stereo not drawn), for which the GI50 was > 100 µM (inactive) in [1]; > 100 µM (inactive) in assay [2]; > 100 µM (inactive) in assay [3]; greater than 100 µM in assay [4]; > 100 µM (inactive) in assay [5]; > 100 µM (inactive) in assay [6]. The GI50 in assay [7], in assay [8], in [20], in assay [9], in assay [10] and in [11] was > 100 µM (inactive) in each case. Further, the GI50 in assay [13], in [14], in assay [16], in assay [17] and in [19] was > 100 µM (inactive) each time.
With `COc1ccc2nc3ccccc3c(NCCCCCCN(CCCl)CCCl)c2c1`, the GI50 in assay [1] was 0.0627 µM (active); in assay [2], 0.486 µM (active); in [3], 0.304 µM (active); in assay [4] it was 0.0577 µM; in assay [5], 0.328 µM (active); in assay [6], 0.0122 µM (active). Besides, the GI50 was 0.0528 µM (active) in assay [7]; 0.0115 µM (active) in assay [20]; 0.0348 µM (active) in assay [9]; 0.01 µM (active) in assay [10]; 0.0199 µM (active) in assay [11]; 0.0299 µM (active) in assay [12]. In addition, the GI50 in assay [13] is 0.0482 µM (active); in assay [14], 1.6 µM (inactive); in assay [15], 0.0514 µM (active); in [16], 0.0649 µM (active); in [17], 0.323 µM (active); in assay [19], 1.04 µM (active). Further, the GI50 in [18] was 0.895 µM (active).
Regarding `CCOC(=O)CC(=O)NC1CC2CCC1(C)C2(C)C` (stereo not drawn), the GI50 in assay [1] was > 100 µM (inactive); in assay [2], > 100 µM (inactive); in assay [3], > 100 µM (inactive); in assay [4] it was greater than 100 µM; in [5], > 100 µM (inactive); in [6], > 100 µM (inactive). Also, the GI50 in assay [7], in assay [20], in assay [9], in assay [10], in assay [11] and in assay [12] was > 100 µM (inactive) throughout. Moreover, the GI50 in assay [13], in assay [14], in assay [15], in assay [16], in assay [17] and in assay [19] was > 100 µM (inactive) in each case. Besides, the GI50 in assay [18] was > 100 µM (inactive).
Consider `Cc1ccc(NNc2cc(=O)[nH]c(=O)[nH]2)cc1Cl`, for which the GI50 is 15.8 µM (inactive) in [2]; 73.5 µM (inactive) in assay [3]; 10.6 µM in assay [4]; 24.4 µM (inactive) in assay [5]; 10.9 µM (inactive) in [6]; 16.4 µM (inactive) in assay [7]. For the same molecule, the GI50 in assay [8] was 9.95 µM (inactive); in [20], 12.1 µM (inactive); in assay [9] it was > 100 µM (inactive); in assay [11] it was 5.71 µM (inactive); in assay [12], 14.9 µM (inactive); in [14] it was 17.5 µM (inactive). In addition, the GI50 in [15] was 22.3 µM (inactive); in assay [16] it was 43.2 µM (inactive); in assay [17], 41.1 µM (inactive); in [19], 19.1 µM (inactive).

These data come from ChEMBL document CHEMBL1201862, “PubChem BioAssay data set” (2004).
